# Patent publication US11208412B2 (DAEGU-GYEONGBUK MEDICAL INNOVATION FOUNDATION, priority 2017, dated 2021)
# How the values were obtained:
# Assay in all cases: Kinase selectivity, DiscoverX scanMAX Kinase assay panel (% control)
# Format in all cases: binding
# [1] = molecular target: T1, kinases of the scanMAX Kinase assay panel (Homo sapiens, UniProt Q00536); settings: PCTK1; 1 uM
# T1 construct: purchased DiscoverX Co. (contract measurement) scanMAX Kinase assay panel
# Procedure, shortened: (§1)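 Binding-panel profiling at one concentration, 1 uM in DMSO; values are % of DMSO control after subtracting the positive-control floor. Less than 35% means activity on that kinase.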
# [2] = molecular target: T2, kinases of the scanMAX Kinase assay panel (Homo sapiens, UniProt Q96Q40); settings: PFTAIRE2; 1 uM
# T2 construct: purchased DiscoverX Co. (contract measurement) scanMAX Kinase assay panel
# T2 sequence (Q96Q40 whole entry): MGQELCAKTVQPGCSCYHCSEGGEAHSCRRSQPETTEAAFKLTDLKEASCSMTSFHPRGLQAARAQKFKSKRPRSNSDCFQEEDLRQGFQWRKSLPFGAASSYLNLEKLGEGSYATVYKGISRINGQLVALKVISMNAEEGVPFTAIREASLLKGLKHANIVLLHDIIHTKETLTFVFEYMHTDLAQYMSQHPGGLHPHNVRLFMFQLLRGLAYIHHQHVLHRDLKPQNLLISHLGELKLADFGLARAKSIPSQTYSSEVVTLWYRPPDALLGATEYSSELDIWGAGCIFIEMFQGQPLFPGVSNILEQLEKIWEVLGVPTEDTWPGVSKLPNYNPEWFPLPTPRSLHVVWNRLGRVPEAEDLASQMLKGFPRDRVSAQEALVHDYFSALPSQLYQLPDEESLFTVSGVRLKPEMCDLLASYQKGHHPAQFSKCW
# Procedure, shortened: as §1
# [3] = molecular target: T3, kinases of the scanMAX Kinase assay panel (Homo sapiens, UniProt Q8N5S9); settings: CAMKK1; 1 uM
# T3 construct: purchased DiscoverX Co. (contract measurement) scanMAX Kinase assay panel
# T3 sequence (Q8N5S9 whole entry): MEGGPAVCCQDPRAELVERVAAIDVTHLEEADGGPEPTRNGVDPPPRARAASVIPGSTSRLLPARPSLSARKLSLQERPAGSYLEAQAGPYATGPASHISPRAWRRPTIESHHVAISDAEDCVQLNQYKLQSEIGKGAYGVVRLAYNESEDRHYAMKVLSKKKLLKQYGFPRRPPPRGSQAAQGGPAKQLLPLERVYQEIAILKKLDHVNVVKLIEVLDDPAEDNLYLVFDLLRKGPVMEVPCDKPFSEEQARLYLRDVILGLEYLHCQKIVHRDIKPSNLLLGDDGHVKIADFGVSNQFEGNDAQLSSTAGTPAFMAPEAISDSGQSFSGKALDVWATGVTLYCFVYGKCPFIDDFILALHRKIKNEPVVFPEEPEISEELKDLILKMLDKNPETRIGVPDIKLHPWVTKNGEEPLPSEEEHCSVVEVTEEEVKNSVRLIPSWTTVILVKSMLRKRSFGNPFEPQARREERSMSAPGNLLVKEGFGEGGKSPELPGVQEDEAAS
# Procedure, shortened: as §1
# [4] = molecular target: T4, kinases of the scanMAX Kinase assay panel (Homo sapiens, UniProt P09769); settings: FGR; 1 uM
# T4 construct: purchased DiscoverX Co. (contract measurement) scanMAX Kinase assay panel
# T4 sequence (P09769 whole entry): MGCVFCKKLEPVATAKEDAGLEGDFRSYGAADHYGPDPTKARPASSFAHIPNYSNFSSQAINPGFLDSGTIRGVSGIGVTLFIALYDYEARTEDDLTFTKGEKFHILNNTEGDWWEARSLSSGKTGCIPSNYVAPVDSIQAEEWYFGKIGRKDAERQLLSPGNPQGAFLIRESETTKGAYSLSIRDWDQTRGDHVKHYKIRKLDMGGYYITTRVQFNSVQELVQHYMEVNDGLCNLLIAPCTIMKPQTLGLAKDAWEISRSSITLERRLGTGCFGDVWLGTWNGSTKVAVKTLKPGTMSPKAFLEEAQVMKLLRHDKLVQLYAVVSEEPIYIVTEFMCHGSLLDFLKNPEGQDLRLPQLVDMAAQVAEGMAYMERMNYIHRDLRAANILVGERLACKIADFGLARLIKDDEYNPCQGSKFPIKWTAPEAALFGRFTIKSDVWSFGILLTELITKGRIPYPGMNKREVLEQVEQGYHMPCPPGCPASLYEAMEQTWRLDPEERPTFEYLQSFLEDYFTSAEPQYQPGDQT
# Procedure, shortened: as §1
# [5] = molecular target: T5, kinases of the scanMAX Kinase assay panel (Homo sapiens, UniProt Q9UL54); settings: kinase TAOK2; 1 uM in DMSO
# T5 construct: purchased DiscoverX Co. (contract measurement) scanMAX Kinase assay panel
# T5 sequence (Q9UL54 1-1235): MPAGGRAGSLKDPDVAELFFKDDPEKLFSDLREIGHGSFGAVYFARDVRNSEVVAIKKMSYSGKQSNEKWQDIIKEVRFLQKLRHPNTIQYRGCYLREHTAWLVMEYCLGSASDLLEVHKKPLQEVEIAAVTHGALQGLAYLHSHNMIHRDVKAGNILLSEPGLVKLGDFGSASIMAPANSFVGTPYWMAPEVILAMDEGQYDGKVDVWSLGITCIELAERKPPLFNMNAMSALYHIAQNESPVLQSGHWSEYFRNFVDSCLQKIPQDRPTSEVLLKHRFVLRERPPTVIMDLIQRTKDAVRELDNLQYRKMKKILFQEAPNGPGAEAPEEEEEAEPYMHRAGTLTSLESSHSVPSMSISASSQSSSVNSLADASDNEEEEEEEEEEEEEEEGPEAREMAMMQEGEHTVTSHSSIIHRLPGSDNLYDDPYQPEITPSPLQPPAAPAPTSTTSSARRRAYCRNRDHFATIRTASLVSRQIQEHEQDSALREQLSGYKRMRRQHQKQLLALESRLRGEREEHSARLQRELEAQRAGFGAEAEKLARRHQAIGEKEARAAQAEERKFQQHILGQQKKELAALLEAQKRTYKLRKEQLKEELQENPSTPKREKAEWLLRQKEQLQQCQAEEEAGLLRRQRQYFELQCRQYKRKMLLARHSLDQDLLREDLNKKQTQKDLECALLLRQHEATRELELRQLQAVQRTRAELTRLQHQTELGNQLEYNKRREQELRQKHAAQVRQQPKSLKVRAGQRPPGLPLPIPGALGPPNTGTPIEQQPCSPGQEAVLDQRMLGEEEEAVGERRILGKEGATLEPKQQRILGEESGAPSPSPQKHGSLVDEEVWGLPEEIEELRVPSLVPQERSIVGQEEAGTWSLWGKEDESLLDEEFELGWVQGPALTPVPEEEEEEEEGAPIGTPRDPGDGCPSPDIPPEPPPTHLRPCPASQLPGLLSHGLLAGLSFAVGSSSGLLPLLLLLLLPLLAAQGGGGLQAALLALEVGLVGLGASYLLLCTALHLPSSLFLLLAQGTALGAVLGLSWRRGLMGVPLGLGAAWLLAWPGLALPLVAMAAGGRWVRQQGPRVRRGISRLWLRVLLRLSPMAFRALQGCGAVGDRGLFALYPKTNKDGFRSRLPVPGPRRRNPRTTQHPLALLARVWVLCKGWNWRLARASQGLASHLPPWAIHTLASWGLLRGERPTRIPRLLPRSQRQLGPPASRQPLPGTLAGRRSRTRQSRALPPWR
# Procedure, shortened: as §1
# [6] = molecular target: T6, kinases of the scanMAX Kinase assay panel (Homo sapiens, UniProt P49840); settings: GSK3A; 1 uM
# T6 construct: purchased DiscoverX Co. (contract measurement) scanMAX Kinase assay panel
# T6 sequence (P49840 whole entry): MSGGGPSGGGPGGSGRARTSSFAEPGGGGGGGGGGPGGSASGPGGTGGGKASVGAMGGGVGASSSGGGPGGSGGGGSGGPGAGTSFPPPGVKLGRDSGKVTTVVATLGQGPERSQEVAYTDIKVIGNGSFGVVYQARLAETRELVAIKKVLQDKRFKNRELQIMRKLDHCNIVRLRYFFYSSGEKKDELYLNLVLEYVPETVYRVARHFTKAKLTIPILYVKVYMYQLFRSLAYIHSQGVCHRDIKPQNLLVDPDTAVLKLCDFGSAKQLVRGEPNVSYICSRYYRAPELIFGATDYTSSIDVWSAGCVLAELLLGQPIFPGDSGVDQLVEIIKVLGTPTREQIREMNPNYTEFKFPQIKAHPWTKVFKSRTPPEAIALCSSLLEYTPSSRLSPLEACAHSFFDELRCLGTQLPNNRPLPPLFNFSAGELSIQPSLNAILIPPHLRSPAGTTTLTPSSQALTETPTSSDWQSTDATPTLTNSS
# Procedure, shortened: as §1
# [7] = molecular target: T7, kinases of the scanMAX Kinase assay panel (Homo sapiens, UniProt Q9Y616); settings: IRAK3; 1 uM
# T7 construct: purchased DiscoverX Co. (contract measurement) scanMAX Kinase assay panel
# T7 sequence (Q9Y616 1-596): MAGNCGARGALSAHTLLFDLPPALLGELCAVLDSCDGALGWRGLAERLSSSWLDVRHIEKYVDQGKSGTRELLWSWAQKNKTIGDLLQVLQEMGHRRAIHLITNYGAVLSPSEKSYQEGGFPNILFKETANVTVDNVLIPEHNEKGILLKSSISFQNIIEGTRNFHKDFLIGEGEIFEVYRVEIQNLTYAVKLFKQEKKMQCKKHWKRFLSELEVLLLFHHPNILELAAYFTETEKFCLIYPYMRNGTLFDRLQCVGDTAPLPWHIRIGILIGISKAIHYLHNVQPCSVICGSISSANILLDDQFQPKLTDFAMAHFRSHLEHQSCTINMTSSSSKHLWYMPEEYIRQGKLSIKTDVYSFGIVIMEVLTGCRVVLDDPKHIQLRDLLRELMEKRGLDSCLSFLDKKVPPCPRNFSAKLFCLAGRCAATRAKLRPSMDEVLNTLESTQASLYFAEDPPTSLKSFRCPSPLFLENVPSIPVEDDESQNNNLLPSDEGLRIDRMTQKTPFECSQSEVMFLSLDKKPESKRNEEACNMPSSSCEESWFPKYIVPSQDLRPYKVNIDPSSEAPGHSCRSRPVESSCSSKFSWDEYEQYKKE
# Procedure, shortened: as §1
# T1 sequence (Q00536 whole entry): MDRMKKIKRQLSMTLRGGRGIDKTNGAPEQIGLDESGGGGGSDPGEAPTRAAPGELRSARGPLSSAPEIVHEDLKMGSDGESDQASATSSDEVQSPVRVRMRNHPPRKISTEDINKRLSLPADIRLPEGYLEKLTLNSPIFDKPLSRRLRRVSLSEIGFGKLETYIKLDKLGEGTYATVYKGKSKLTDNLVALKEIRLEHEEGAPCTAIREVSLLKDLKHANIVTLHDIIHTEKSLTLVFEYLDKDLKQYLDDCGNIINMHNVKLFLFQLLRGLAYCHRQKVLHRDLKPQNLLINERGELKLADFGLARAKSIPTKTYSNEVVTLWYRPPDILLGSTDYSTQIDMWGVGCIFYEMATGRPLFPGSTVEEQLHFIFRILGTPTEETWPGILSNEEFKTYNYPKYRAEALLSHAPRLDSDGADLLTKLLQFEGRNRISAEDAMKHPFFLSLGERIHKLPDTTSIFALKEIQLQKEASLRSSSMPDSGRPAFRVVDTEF
Compound,remaining binding at 1 µM [1],remaining binding at 1 µM [2],remaining binding at 1 µM [3],remaining binding at 1 µM [4],remaining binding at 1 µM [5],remaining binding at 1 µM [6],remaining binding at 1 µM [7]
"CNc1nc(Nc2ccc(C(=O)N3CCOCC3)cc2OC)nc2[nH]cc(C#N)c12 [Example 1, 2-((2-methoxy-4-(morpholine-4-carbonyl)phenyl)amino)-4-(methylamino)-7H-pyrrolo[2,3-d]pyrimidine-5-carbonitrile]",77%,97%,81%,94%,78%,100%,90%
"CC1(Nc2nc(Nc3cnn([C@H]4CCN(C5COC5)C[C@@H]4F)c3Cl)nc3[nH]cc(C#N)c23)CC1 [Example 52, 2-((5-chloro-1-((3S,4S)-3-fluoro-1-(oxetane-3-yl)piperidine-4-yl)-1H-pyrazole-4-yl)amino)((1-methylcyclopropyl)amino)-7H-pyrrolo[2,3-d]pyrimidine-5-carbonitrile]",100%,90%,21%,10%,40%,12%,3.9%
"CCNc1nc(Nc2ccc(C(=O)N3CCC(N4CCOCC4)CC3)cc2OC)nc2[nH]cc(C(F)(F)F)c12 [Example 104, (4-((4-(ethylamino)-5-(trifluoromethyl)-7H-pyrrolo[2,3-d]pyrimidine-2-yl)amino)-3-methoxyphenyl)(4-morpholinopiperidine-1-yl)methanone]",100%,99%,14%,100%,87%,100%,26%
